Literature values, collected in patent US4906471A (priority 1989, dated 1990).

Key:
[1] = tested on: trasient ischemic attacks; settings: in men; prior art statement
[2] = tested on: patients

| Molecule | incidence of transient ischemic attacks [1] | side effects at higher doses [2] | side effects at usual dosage ([2]; usual dosage, prior art statement) | side effects / toxic effects [2] | side effects at low doses [2] |
| --- | --- | --- | --- | --- | --- |
| CC(=O)Oc1ccccc1C(=O)O [Aspirin] | decrease the incidence of trasient ischemic attacks | tinnitus, decreased hearing and vertigo | gastric intolerance | – | – |
| Neomycin | – | – | – | high toxicity | nausea, abdonimal cramps, diarrhea and malabsorption |
| colestipol | – | – | – | constipation and bloating sensation; some times hearburn and diarrhea | – |
